What all share (type): cell-based, mouse
One data set deals with IL-6 mRNA. The experiment in a line: IL-6 mRNA in LPS-activated primary murine macrophages. Conditions: for IL-6 mRNA expression, % UTC: average of 3 treatments; for IL-6 expression: IFN-gamma-stimulated and unstimulated cells, 75-600 nM. The method, then: To investigate the role of miRNAs in the immune response, oligomeric compounds of the present invention targeting miRNAs were tested for their effects upon lipopolysaccharide (LPS)-activated primary murine macrophages. Macrophages participate in the immune response, for example, in the recognition and phagocytosis of microorganisms, including bacteria. Interferon-gamma (IFN-gamma) released by helper T cells is one type of signal required for macrophage activation, and LPS can serve as an additional stimulus. LPS is a component of the gram-negative bacterial cell wall and acts as an agonist for toll-like receptor 4 (TLR4), the primary LPS receptor expressed by macrophages. The proinflammatory cytokines interleukin-12 (IL-12) and interleukin-6 (IL-6) are induced by LPS treatment of macrophages, thus the expression of the mRNAs encoding these cytokines was used to evaluate the response of macrophages to LPS following treatment with oligomeric compounds targeting miRNAs.
Macrophages were isolated as follows. Female C57B1/6 mice (Charles River Laboratories, Wilmington, Mass.) were injected intraperitoneally with 1 ml 3% thioglycollate broth (Sigma-Aldrich, St. Louis, Mo.), and peritoneal macrophage cells were isolated by peritoneal lavage 4 days later. The cells were plated in 96-well plates at 40,000 cells/well for one hour in serum-free RPMI adjusted to contain 10 mM HEPES (Invitrogen Life Technologies, Carlsbad, Calif.), allowed to adhere, then non-adherent cells were washed away and the media was replaced with RPMI containing 10 mM HEPES, 10% FBS and penicillin/streptomycin (“complete” RPMI; Invitrogen Life Technologies, Carlsbad, Calif.).
Oligomeric compounds were introduced into the cells using the non-liposomal transfection reagent FuGENE 6 Transfection Reagent (Roche Diagnostics Corp., Indianapolis, Ind.). Oligomeric compound was mixed with FuGENE 6 in 1 mL of serum-free RPMI to achieve a concentration of 10 μL FuGENE per 1000 nM oligomeric compound. The oligomeric compound/FuGENE complex was allowed to form at room temperature for 20 minutes. This mixture was diluted to the desired concentration of oligomeric compound by the addition of the appropriate volume of complete RPMI. The final ratio of FuGENE 6 to oligomeric compound was 1 μL of FuGENE 6 per 100 nM oligomeric compound. A volume of 100 μL of oligomeric compound/FuGENE/RPMI was added to each well of the 96-well plate in which the macrophages were cultured. Each oligomeric compound treatment was repeated in triplicate.
Following oligomeric compound treatment, cells were stimultated with LPS. Cells were cultured in the presence of the transfection complex for approximately 24 to 28 hours at 37° C. and 5% CO2, after which the medium containing the transfection complex was removed from the cells, and complete RPMI containing 100 ng/mL LPS (Sigma-Aldrich Corp., St. Louis, Mo.) was added to the cells for a period of approximately 24 hours. Control samples included (1) cells receiving no oligomeric compound, stimulated with LPS and (2) cells receiving neither oligomeric compound nor LPS treatment.
In another embodiment, following oligomeric compound treatment, cells were first activated by IFN-gamma, to amplify the response to LPS. Cells were cultured in the presence of the transfection complex for approximately 24 hours at 37° C. and 5% CO2, at which point the medium containing the transfection complex was removed from the cells, and complete RPMI containing 100 ng/mL recombinant mouse IFN-gamma (R&D Systems, Minneapolis, Minn.) was added to the cells. After the 4 hour treatment with INF-gamma, cells were treated with 100 ng/mL LPS for approximately 24 hours. Control samples included (1) cells receiving no oligomeric compound, stimulated with LPS and (2) cells receiving neither oligomeric compound nor LPS treatment. […]

In another data set the test system is IL-12 mRNA. The data set can be described thus: IL-12 mRNA in LPS-activated primary murine macrophages. The note with it: for IL-12 mRNA expression, % UTC: LPS, average of 3 treatments; for IL-12 mRNA expression, +IFN % UTC: 300 nM oligomeric compound, stimulation with IFN-gamma and LPS, average of 2 experiments.
Another data set has as its system B16-F10 cells. The data set can be described thus: Cell cycle assay in B16-F10 cells. The note with it: 150 nM, 48 hours, relative to untreated control. The procedure:
BJ cells were routinely cultured in MEM high glucose with 2 mM L-glutamine and Earle's BSS adjusted to contain 1.5 g/L sodium bicarbonate and supplemented with 10% fetal bovine serum, 0.1 mM non-essential amino acids and 1.0 mM sodium pyruvate (all media and supplements from Invitrogen Life Technologies, Carlsbad, Calif.). B16-F10 cells were routinely cultured in DMEM high glucose (Invitrogen Life Technologies, Carlsbad, Calif.) supplemented with 10% fetal bovine serum (Invitrogen Life Technologies, Carlsbad, Calif.). T47D cells were cultured in DMEM High glucose media (Invitrogen Life Technologies, Carlsbad, Calif.) supplemented with 10% fetal bovine serum. […] Cells were plated on collagen-coated 24-well plates (Falcon-Primaria #3047, BD Biosciences, Bedford, Mass.) at approximately 50,000 cells per well and allowed to attach to wells overnight.
In further studies, additional cell lines were treated with oligomeric compounds targeted against miRNAs to assess the effects of each oligomeric compound on cell cycling. BJ, B16, T47D, and HeLa cells were cultured and transfected as described above. […] T47Dp53 cells are T47D cells that have been transfected with and selected for maintenance of a plasmid that expresses a wildtype copy of the p53 gene (for example, pCMV-p53; Clontech, Palo Alto, Calif.), using standard laboratory procedures. BJ cells were treated with 200 nM of each oligomeric compound, and T47D, T47Dp53, HeLa, and B16 cells were treated with 150 nM of each oligomeric compound. The human foreskin fibroblast BJ cell line represents a non-cancer cell line, while HeLa, T47D, T47Dp53 cells and the mouse melanoma cell line B16-F10 represent cancerous cell lines. For comparison, oligomeric compounds ISIS 183891 (SEQ ID NO: 847) and ISIS 285717 ([…]; herein incorporated as SEQ ID NO: 857), both targeting the kinesin-like 1/Eg5 mRNA, involved in cell cycling, were used as positive controls. The random-mer ISIS 29848 was used as a negative control. Additionally, the oligomeric compounds ISIS Number 25690 ([…]; herein incorporated as SEQ ID NO: 858) and ISIS Number 25691 ([…]; herein incorporated as SEQ ID NO: 859), targeted to nucleotides 3051-3070 and 3085-3104, respectively, of the mRNA encoding the Drosha RNase III (GenBank Accession NM_013235.2, incorporated herein as SEQ ID NO: 860) were also tested. ISIS Number 25690 and ISIS Number 25691 are 5-10-52′-MOE gapmer compounds, 20 nucleotides in length, with phosphorothioate internucleoside linkages throughout the oligomeric compound. All cytidine residues are 5-methylcytidines. Transfections were performed using the methods described herein. Cells were prepared for flow cytometry 48-hours after oligonucleotide treatment. Results of these studies are shown in Table 35, where data are expressed as percentage of cells in each phase relative to the untreated control cells in that phase.

[1] abbreviates: normalized to LPS-treated cells without oligomeric compound.

In the oligonucleotide strings, read from the 5' end, every base follows the letter of its sugar. An asterisk marks phosphorothioate; unmarked linkages are phosphodiester. Other units and linkages are bracketed, terminal groups are in braces. A string of capitals states the bases alone. e = 2'-O-(2-methoxyethyl) (MOE); [5mC] = 5-methylcytosine; d = 2'-deoxy (DNA) Where only a bound is given, the exact number is not on record here.

As to “289606 (antisense CCUUCCCUGAAGGUUCCUCC; all 2'-MOE, all C 5-methyl, all phosphorothioate, T or U not given here) [compound 289606]”, the “IL-6 mRNA expression, % UTC” value with IL-6 mRNA (75 nM, +IFN) is recorded as 78 % UTC; in the data set on IL-6 mRNA (75 nM, −IFN), 77 % UTC; in the data set on IL-6 mRNA (150 nM, +IFN) it was 69 % UTC; in the data set with IL-6 mRNA (150 nM, −IFN), 68 % UTC; with IL-6 mRNA (300 nM, +IFN) it was 70 % UTC; in the data set with IL-6 mRNA (300 nM, −IFN), 65 % UTC. Moreover, the “IL-6 mRNA expression, % UTC” value in the data set with IL-6 mRNA (600 nM, +IFN) worked out at 59 % UTC; in the data set with IL-6 mRNA (600 nM, −IFN), 77 % UTC. Besides, the “IL-12 mRNA expression, % UTC” value in the data set on IL-12 mRNA (75 nM, +IFN) is recorded as 59 % UTC; in the data set on IL-12 mRNA (75 nM, −IFN) it was 89 % UTC; in the data set with IL-12 mRNA (150 nM, +IFN), 46 % UTC; in the data set with IL-12 mRNA (150 nM, −IFN) it was 99 % UTC; with IL-12 mRNA (300 nM, +IFN), 52 % UTC; in the data set with IL-12 mRNA (300 nM, −IFN), 80 % UTC. The “IL-12 mRNA expression, % UTC” value with IL-12 mRNA (600 nM, +IFN) was found to be 66 % UTC; in the data set on IL-12 mRNA (600 nM, −IFN), 98 % UTC. Besides, the “IL-12 mRNA expression, +IFN % UTC” value in the data set with IL-12 mRNA (setting [1]) came out at 129 % UTC.
On to “AACCCACCGACAGCAATGAATGTT (chemistry not given here) [ISIS 327941, uniform 2′-MOE PS; targets mir-181b]”, for which the IL-6 expression entry in the data set with IL-6 mRNA was “increased in a dose-dependent manner”. The “IL-12 mRNA expression, % of the untreated control” value with IL-12 mRNA (IFN-gamma then LPS, all doses) was “less than 5%”.
For the substance “285717 (antisense TCGGTTCTTTCCAAGGCTGA; chemistry not given here) [compound 285717]”, in the data set on B16-F10 cells, the “% cells in cell cycle phase G1” value amounted to 72%, the “% cells in cell cycle phase G2/M” value was found to be 220%, the “% cells in cell cycle phase S” value is 78% and the “% cells in cell cycle phase aneuploid” value is 178%. Besides, in the data set with B16-F10 cells, the “% cells in cell cycle phase subG1” value is 627%.
With “229927 (antisense e[5mC]*e[5mC]*eA*e[5mC]*eA*dT*dT*dG*dA*dG*dT*dT*dT*d[5mC]*dT*eT*eT*eA*eA*eG) [compound 229927]”, the “IL-6 mRNA expression, % UTC” value with IL-6 mRNA (75 nM, +IFN) is 54 % UTC; in the data set on IL-6 mRNA (75 nM, −IFN), 57 % UTC; in the data set with IL-6 mRNA (150 nM, +IFN), 39 % UTC; in the data set on IL-6 mRNA (150 nM, −IFN), 52 % UTC; in the data set with IL-6 mRNA (300 nM, +IFN), 40 % UTC; in the data set with IL-6 mRNA (300 nM, −IFN) it was 44 % UTC. Also, the “IL-6 mRNA expression, % UTC” value with IL-6 mRNA (600 nM, +IFN) was determined as 69 % UTC; with IL-6 mRNA (600 nM, −IFN), 104 % UTC. Besides, the “IL-12 mRNA expression, % UTC” value in the data set with IL-12 mRNA (75 nM, +IFN) was found to be 46 % UTC; with IL-12 mRNA (75 nM, −IFN) it was 67 % UTC; with IL-12 mRNA (150 nM, +IFN), 35 % UTC; with IL-12 mRNA (150 nM, −IFN), 53 % UTC; in the data set on IL-12 mRNA (300 nM, +IFN), 16 % UTC; in the data set with IL-12 mRNA (300 nM, −IFN), 45 % UTC. The “IL-12 mRNA expression, % UTC” value stood at 8 % UTC in the data set on IL-12 mRNA (600 nM, +IFN) and 46 % UTC in the data set with IL-12 mRNA (600 nM, −IFN). In the data set with IL-12 mRNA (300 nM oligomeric compound and LPS, no IFN-gamma pretreatment, single experiment, normalized to LPS-treated cells without oligomeric compound), the “IL-12 mRNA expression, −IFN % UTC” value turned out to be 92 % UTC. Also, the “IL-12 mRNA expression, +IFN % UTC” value with IL-12 mRNA (setting [1]) turned out to be 145 % UTC.
Regarding “CTTCCAGTCGGGGATGTTTACA (anti-miR; chemistry not fully specified) [ISIS 327921, uniform 2′-MOE PS; targets mir-30d]”, the IL-6 expression entry in the data set with IL-6 mRNA was “increased in a dose-dependent manner”. Moreover, in the data set on IL-12 mRNA (IFN-gamma then LPS, 75 nM), the “IL-12 expression, % of the control” value was found to be 14%. In addition, in the data set with IL-12 mRNA (IFN-gamma then LPS, all other doses (150, 300, 600 nM)), the “IL-12 expression, % of the untreated control” value is “less than 10%”. The “IL-12 expression, percentage of untreated control” value in the data set with IL-12 mRNA (LPS alone, 75, 150, 300 and 600 nM) is recorded as no less than 53%. Moreover, the “IL-12 mRNA expression” value with IL-12 mRNA (LPS-stimulated primary murine macrophages) is on record as “inhibited IL-12 mRNA expression in a dose-dependent manner”.

The values are drawn from patent publication US8178506B2, “Oligomeric compounds and compositions for use in modulation of small non-coding RNAs” (Regulus Therapeutics Inc., priority 2003, dated 2012).
